In experiment [1] the target is T1, NPC1L1 (rNPC1L1) (Rattus norvegicus, UniProt Q6T3U3).
T1 construct: rat NPC1L1 (GenBank AY437867), membranes from stably expressing HEK293 cells
Kind of experiment: competitive radioligand binding, [3H]ezetimibe glucuronide, HEK293/rNPC1L1 membranes.

Experiment [2] addresses T1, NPC1L1 (rNPC1L1). Description: competitive radioligand binding, [3H]ezetimibe glucuronide, HEK293/rNPC1L1 membranes (two-site fit; low-affinity site […]).

The values that follow come from paper PMC4281142, “Fomiroid A, a Novel Compound from the Mushroom Fomitopsis nigra, Inhibits NPC1L1-Mediated Cholesterol Uptake via a Mode of Action Distinct from That of Ezetimibe” (PLoS ONE, 2014).

One may read the IC50 as the point on the concentration scale where inhibition reaches its midpoint. The low end stands for higher potency, the high end for lower potency. `O=C1[C@H](CC[C@H](O)c2ccc(F)cc2)[C@@H](c2ccc(O)cc2)N1c1ccc(F)cc1` [ezetimibe] yielded an IC50 on NPC1L1 (rNPC1L1) [1] of 332 ± 4.2 nM. Molecule `CC(C)=CCCC(CO)C1CC(O)C2(C)C3=C(CCC12C)C1(C)CCC(=O)C(C)(C)C1CC3` (centres unmarked) [fomiroid A, 15, 21-dihydroxylanosta-8, 24-dien-3-one] showed an IC50 on NPC1L1 (rNPC1L1) [2] of 4830 ± 200 nM.
